Test results: PubChem BioAssay AID2060510 (Molecular Pharmacology Branch, DTP, NCI, 2025)
pIC50: −log10 of the molar value.

System: 439559-082-T-J2-PDC spheroids viability
Assay: Anticancer human tumor 439559-082-T-J2-PDC patient-derived colon adenocarcinoma cell line growth inhibition [GQUAD]
Conditions: for pIC50: curve of first compound; for viability, T/C: stronger effect = lower value
Summary of the method: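 Tumor cells were grown as complex spheroids with HUVEC endothelial cells and mesenchymal stem cells as stroma. G-quadruplex stabilizers were combined with targeted agents over half-log dilutions from near the clinical Cmax, or from 10 microM.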

[1] = second compound 0.0316 µM, first compound 0.000999 µM
[2] = second compound 0.0316 µM, first compound 0.00316 µM
[3] = second compound 0.0316 µM, first compound 0.00999 µM
[4] = second compound 0.0316 µM, first compound 0.0316 µM
[5] = second compound 0.0316 µM, first compound 0.0999 µM
[6] = second compound 0.0316 µM, first compound 0.316 µM
[7] = second compound 0.1 µM, first compound 0.000999 µM
[8] = second compound 0.1 µM, first compound 0.00316 µM
[9] = second compound 0.1 µM, first compound 0.00999 µM
[10] = second compound 0.1 µM, first compound 0.0316 µM
[11] = second compound 0.1 µM, first compound 0.0999 µM
[12] = second compound 0.1 µM, first compound 0.316 µM
[13] = second compound 0.316 µM, first compound 0.000999 µM
[14] = second compound 0.316 µM, first compound 0.00316 µM
[15] = second compound 0.316 µM, first compound 0.00999 µM
[16] = second compound 0.316 µM, first compound 0.0316 µM
[17] = second compound 0.316 µM, first compound 0.0999 µM
[18] = second compound 0.316 µM, first compound 0.316 µM
[19] = second compound 1 µM, first compound 0.000999 µM
[20] = second compound 1 µM, first compound 0.00316 µM
[21] = second compound 1 µM, first compound 0.00999 µM
[22] = second compound 1 µM, first compound 0.0316 µM
[23] = second compound 1 µM, first compound 0.0999 µM
[24] = second compound 1 µM, first compound 0.316 µM
[25] = second compound 3.16 µM, first compound 0.000999 µM
[26] = second compound 3.16 µM, first compound 0.00316 µM
[27] = second compound 3.16 µM, first compound 0.00999 µM
[28] = second compound 3.16 µM, first compound 0.0316 µM
[29] = second compound 3.16 µM, first compound 0.0999 µM
[30] = second compound 3.16 µM, first compound 0.316 µM
[31] = second compound 10 µM, first compound 0.000999 µM
[32] = second compound 10 µM, first compound 0.00316 µM
[33] = second compound 10 µM, first compound 0.00999 µM
[34] = second compound 10 µM, first compound 0.0316 µM
[35] = second compound 10 µM, first compound 0.0999 µM
[36] = second compound 10 µM, first compound 0.316 µM
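Further: spheroids exposed to the agents for 7 days before readout.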
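Wherever viability, T/C is given: percent of luminescence signal in DMSO vehicle wells taken as 100% viability.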

Compound `CC[C@@]1(O)C(=O)OCc2c1cc1n(c2=O)Cc2cc3c(CN(C)C)c(O)ccc3nc2-1` + Cc1[nH]c2ccc(F)cc2c1-c1nc2c3cccnc3c3ncccc3c2[nH]1 has a pIC50 (second compound 0.0316 µM) of under 6.50, a pIC50 (second compound 0.1 µM) of under 6.50 and a pIC50 (second compound 0.316 µM) of under 6.50. For the same compound, the pIC50 (second compound 1 µM) was under 6.50, the pIC50 (second compound 3.16 µM) was under 6.50 and the pIC50 (second compound 10 µM) was under 6.50. For the same compound, the viability, T/C [1] was 99.4%, the viability, T/C [2] was 109% and the viability, T/C [3] was 94.5%. The viability, T/C [4] was 99.7%, the viability, T/C [5] was 96.3% and the viability, T/C [6] was 82.4%. For the same compound, the viability, T/C [7] was 101%, the viability, T/C [8] was 102% and the viability, T/C [9] was 99.5%. For the same compound, the viability, T/C [10] was 96.2%, the viability, T/C [11] was 103% and the viability, T/C [12] was 83%. The viability, T/C [13] was 98.1%, the viability, T/C [14] was 92.1% and the viability, T/C [15] was 89.1%. It also gave a viability, T/C [16] of 99.2%, a viability, T/C [17] of 90.5% and a viability, T/C [18] of 83.3%. It also gave a viability, T/C [19] of 94%, a viability, T/C [20] of 101% and a viability, T/C [21] of 98.6%. For the same compound, the viability, T/C [22] was 84.9%, the viability, T/C [23] was 93.3% and the viability, T/C [24] was 83.6%. For the same compound, the viability, T/C [25] was 81.8%, the viability, T/C [26] was 81.2% and the viability, T/C [27] was 88.9%. The viability, T/C [28] was 78.2%, the viability, T/C [29] was 86.2% and the viability, T/C [30] was 73.5%. The viability, T/C [31] was 86.4%, the viability, T/C [32] was 78.7% and the viability, T/C [33] was 75.3%. It also gave a viability, T/C [34] of 76%, a viability, T/C [35] of 90.1% and a viability, T/C [36] of 56.9%.

With `CCc1c2c(nc3ccc(O)cc13)-c1cc3c(c(=O)n1C2)COC(=O)[C@]3(O)CC` + Cc1[nH]c2ccc(F)cc2c1-c1nc2c3cccnc3c3ncccc3c2[nH]1 the pIC50 (second compound 0.0316 µM) was 6.65, the pIC50 (second compound 0.1 µM) was under 6.50 and the pIC50 (second compound 0.316 µM) was under 6.50. For the same compound, the pIC50 (second compound 1 µM) was 6.64, the pIC50 (second compound 3.16 µM) was 7.07 and the pIC50 (second compound 10 µM) was 6.78. The viability, T/C [1] was 93.4%, the viability, T/C [2] was 90.6% and the viability, T/C [3] was 88.5%. The viability, T/C [4] was 78.6%, the viability, T/C [5] was 63.2% and the viability, T/C [6] was 44.2%. It also gave a viability, T/C [7] of 102%, a viability, T/C [8] of 93.1% and a viability, T/C [9] of 73.2%. For the same compound, the viability, T/C [10] was 73.8%, the viability, T/C [11] was 65.8% and the viability, T/C [12] was 49.3%. It also gave a viability, T/C [13] of 109%, a viability, T/C [14] of 97.1% and a viability, T/C [15] of 84.5%. The viability, T/C [16] was 76.4%, the viability, T/C [17] was 70.2% and the viability, T/C [18] was 51.1%. It also gave a viability, T/C [19] of 90.9%, a viability, T/C [20] of 79.8% and a viability, T/C [21] of 77.8%. The viability, T/C [22] was 70.7%, the viability, T/C [23] was 65.6% and the viability, T/C [24] was 43.6%. The viability, T/C [25] was 89.1%, the viability, T/C [26] was 74.3% and the viability, T/C [27] was 62.9%. It also gave a viability, T/C [28] of 65.6%, a viability, T/C [29] of 51.9% and a viability, T/C [30] of 32.5%. For the same compound, the viability, T/C [31] was 73%, the viability, T/C [32] was 75.3% and the viability, T/C [33] was 65.6%. It also gave a viability, T/C [34] of 60.7%, a viability, T/C [35] of 63.1% and a viability, T/C [36] of 39%.

`COc1cc(C2c3cc4c(cc3C(OC3OC5COC(C)OC5C(O)C3O)C3COC(=O)C23)OCO4)cc(OC)c1O` (stereo unspecified) + Cc1[nH]c2ccc(F)cc2c1-c1nc2c3cccnc3c3ncccc3c2[nH]1 gave a pIC50 (second compound 0.0316 µM) of under 5.00, a pIC50 (second compound 0.1 µM) of under 5.00 and a pIC50 (second compound 0.316 µM) of under 5.00. For the same compound, the pIC50 (second compound 1 µM) was under 5.00, the pIC50 (second compound 3.16 µM) was under 5.00 and the pIC50 (second compound 10 µM) was under 5.00. For the same compound, the viability, T/C [4] was 98.1%, the viability, T/C (second compound 0.0316 µM, first compound 0.1 µM) was 99.7% and the viability, T/C [6] was 97.9%. It also gave a viability, T/C (second compound 0.0316 µM, first compound 1 µM) of 87.8%, a viability, T/C (second compound 0.0316 µM, first compound 3.16 µM) of 86.5% and a viability, T/C (second compound 0.0316 µM, first compound 10 µM) of 66.1%. It also gave a viability, T/C [10] of 102%, a viability, T/C (second compound 0.1 µM, first compound 0.1 µM) of 98.2% and a viability, T/C [12] of 97.5%. For the same compound, the viability, T/C (second compound 0.1 µM, first compound 1 µM) was 87.1%, the viability, T/C (second compound 0.1 µM, first compound 3.16 µM) was 96.9% and the viability, T/C (second compound 0.1 µM, first compound 10 µM) was 64.9%. The viability, T/C [16] was 108%, the viability, T/C (second compound 0.316 µM, first compound 0.1 µM) was 101% and the viability, T/C [18] was 103%. It also gave a viability, T/C (second compound 0.316 µM, first compound 1 µM) of 94.2%, a viability, T/C (second compound 0.316 µM, first compound 3.16 µM) of 85.6% and a viability, T/C (second compound 0.316 µM, first compound 10 µM) of 65.3%. The viability, T/C [22] was 98.2%, the viability, T/C (second compound 1 µM, first compound 0.1 µM) was 87.8% and the viability, T/C [24] was 89.4%. It also gave a viability, T/C (second compound 1 µM, first compound 1 µM) of 83.8%, a viability, T/C (second compound 1 µM, first compound 3.16 µM) of 86.7% and a viability, T/C (second compound 1 µM, first compound 10 µM) of 58.9%. The viability, T/C [28] was 76.5%, the viability, T/C (second compound 3.16 µM, first compound 0.1 µM) was 85.2% and the viability, T/C [30] was 84.1%. For the same compound, the viability, T/C (second compound 3.16 µM, first compound 1 µM) was 73.5%, the viability, T/C (second compound 3.16 µM, first compound 3.16 µM) was 79.9% and the viability, T/C (second compound 3.16 µM, first compound 10 µM) was 56.7%. The viability, T/C [34] was 88.5%, the viability, T/C (second compound 10 µM, first compound 0.1 µM) was 85.3% and the viability, T/C [36] was 83.8%. The viability, T/C (second compound 10 µM, first compound 1 µM) was 90.6%, the viability, T/C (second compound 10 µM, first compound 3.16 µM) was 78.5% and the viability, T/C (second compound 10 µM, first compound 10 µM) was 57.2%.
